Data taken from patent publication US8101601B2, “Aminoacyl prodrug derivatives and medicaments for the treatment of thromboembolitic disorders” (Bayer Pharma Aktiengesellschaft, priority 2007, dated 2012).
Values after ≈ are worked out from the molar mass of the structure shown. Where a name gives a salt, the structure may show the parent alone.

How the values were obtained:
[1] = Determination of the solubility (suspension shaken 24 h at room temperature, HPLC); type: physicochemical; conditions: for solubility at 24 h: thermodynamic from solid
Protocol: […] This suspension is shaken at room temperature for 24 h. After ultracentrifugation at 224 000 g for 30 min, the supernatant is diluted with DMSO and analysed by HPLC. A two-point calibration plot of the test compound in DMSO is used for quantification.
Agilent 1100 with DAD (G1315A), quat. pump (G1311A), autosampler CTC HTS PAL, degasser (G1322A) and column thermostat (G1316A); column: Zorbax Extend-C18 3.5μ; temperature: 40° C.; eluent A: water+5 ml of perchloric acid/liter, eluent B: acetonitrile; flow rate: 0.7 ml/min; gradient: 0-0.5 min 98% A, 2% B; ramp 0.5-4.5 min 10% A, 90% B; 4.5-6 min 10% A, 90% B; ramp 6.5-6.7 min 98% A, 2% B; 6.7-7.5 min 98% A, 2% B.

[2] = Stability in buffer at various pH values (HPLC, 37° C., 24 h); type: physicochemical
Protocol: 0.3 mg of the test substance is weighed into a 2 ml HPLC vial and 0.5 ml of acetonitrile is added. The substance is dissolved by putting the sample vessel in an ultrasonic bath for about 10 seconds. Then 0.5 ml of the respective buffer solution is added, and the sample is again treated in the ultrasonic bath.
• pH 4.0:1 liter of Millipore water is adjusted to pH 4.0 with 1 N hydrochloric acid; • pH 7.4: 90 g of sodium chloride, 13.61 g of potassium dihydrogen phosphate and 83.35 g of 1 M sodium hydroxide solution are made up to 1 liter with Millipore water and then diluted 1:10.
5 μl portions of the test solution are analysed by HPLC for their content of unchanged test substance every hour over a period of 24 hours at 37° C. The percentage areas of the appropriate peaks are used for quantification.
Agilent 1100 with DAD (G1314A), binary pump (G1312A), autosampler (G1329A), column oven (G1316A), thermostat (G1330A); column: Kromasil 100 C18, 125 mm×4.6 mm, 5 μm; column temperature: 30° C.; eluent A: water+5 ml of perchloric acid/liter, eluent B: acetonitrile.
The ratios of the peak areas (F) at the respective time points in relation to the peak areas at the starting time are shown in Table 2 for representative exemplary embodiments: […]

[3] = dilute hydrochloric acid (pH 4), pH 4, aqueous buffer, room temperature, 24 h
[4] = buffer pH 4, 37° C., hydrobromide

Row | solubility at 24 h [1, 3] [µg/mL] | % test substance after 4 h [F(t = 4 h) × 100/F(t = 0 h)] ([2]; buffer pH 4, 37° C.) [%] | % Test substance after 24 h [F(t = 24 h) × 100/F(t = 0 h)] ([2]; buffer pH 4, 37° C.) [%] | % test substance after 4 h [F(t = 4 h) × 100/F(t = 0 h)] ([2]; buffer pH 7.4, 37° C.) [%] | % Test substance after 24 h [F(t = 24 h) × 100/F(t = 0 h)] ([2]; buffer pH 7.4, 37° C.) [%] | % test substance after 4 h [F(t = 4 h) × 100/F(t = 0 h)] ([2]; buffer pH 7.4, 37° C., hydrobromide) [%] | Solubility ([1]; dilute hydrochloric acid (pH 4), room temperature, 24 h, hydrochloride) [µg/mL] | % test substance after 4 h [F(t = 4 h) × 100/F(t = 0 h)] ([2]; buffer pH 7.4, 37° C., hydrochloride) [%] | % test substance after 4 h [F(t = 4 h) × 100/F(t = 0 h)] [2, 4] [%] | % Test substance after 24 h [F(t = 24 h) × 100/F(t = 0 h)] [2, 4] [%] | solubility at 24 h ([1]; 5% dextrose adjusted to pH 4 with hydrochloric acid, pH 4, saline or isotonic) [µg/mL] | Structure (SMILES)
1 | 320 | 100 | 99 | 49 | 3 | – | – | – | – | – | – | NCC(=O)OCC(=O)N(C[C@H]1CN(c2ccc(N3CCOCC3=O)cc2)C(=O)O1)C(=O)c1ccc(Cl)s1 [Example 1, 2-[[(5-Chloro-2-thienyl)carbonyl]({(5S)-2-oxo-3-[4-(3-oxomorpholin-4-yl)phenyl]-1,3-oxazolidin-5-yl}methyl)amino]-2-oxoethyl glycinate hydrochloride]
2 | > 500 | 100 | 100 | 96 | 80 | – | – | – | – | – | – | CC(C)(N)C(=O)OCC(=O)N(C[C@H]1CN(c2ccc(N3CCOCC3=O)cc2)C(=O)O1)C(=O)c1ccc(Cl)s1 [Example 2, 2-[[(5-Chloro-2-thienyl)carbonyl]({(5S)-2-oxo-3-[4-(3-oxomorpholin-4-yl)phenyl]-1,3-oxazolidin-5-yl}methyl)amino]-2-oxoethyl-2-methylalaninate hydrochloride]
3 | 340 | 100 | 99 | 88 | 48 | – | – | – | – | – | – | CC(C)[C@H](N)C(=O)OCC(=O)N(C[C@H]1CN(c2ccc(N3CCOCC3=O)cc2)C(=O)O1)C(=O)c1ccc(Cl)s1 [Example 3, 2-[[(5-Chloro-2-thienyl)carbonyl]({(5S)-2-oxo-3-[4-(3-oxomorpholin-4-yl)phenyl]-1,3-oxazolidin-5-yl}methyl)amino]-2-oxoethyl L-valinate hydrochloride]
4 | 480 | 100 | 100 | 31 | 0 | – | – | – | – | – | – | O=C(OCC(=O)N(C[C@H]1CN(c2ccc(N3CCOCC3=O)cc2)C(=O)O1)C(=O)c1ccc(Cl)s1)[C@@H]1CCCN1 [Example 4, 2-[[(5-Chloro-2-thienyl)carbonyl] ({(5S)-2-oxo-3-[4-(3-oxomorpholin-4-yl)phenyl]-1,3-oxazolidin-5-yl}methyl)amino]-2-oxoethyl L-prolinate hydrochloride]
5 | 330 | 100 | 94 | 68 | 14 | – | – | – | – | – | – | CNCC(=O)OCC(=O)N(C[C@H]1CN(c2ccc(N3CCOCC3=O)cc2)C(=O)O1)C(=O)c1ccc(Cl)s1 [Example 5, 2-[[(5-Chloro-2-thienyl)carbonyl]({(5S)-2-oxo-3-[4-(3-oxomorpholin-4-yl)phenyl]-1,3-oxazolidin-5-yl}methyl)amino]-2-oxoethyl N-methylglycinate hydrochloride]
6 | 340 | 100 | 99 | 48 | 3 | – | – | – | – | – | – | NCCCC[C@H](N)C(=O)OCC(=O)N(C[C@H]1CN(c2ccc(N3CCOCC3=O)cc2)C(=O)O1)C(=O)c1ccc(Cl)s1 [Example 7, 2-[[(5-Chloro-2-thienyl)carbonyl]({(5S)-2-oxo-3-[4-(3-oxomorpholin-4-yl)phenyl]-1,3-oxazolidin-5-yl}methyl)amino]-2-oxoethyl L-lysinate dihydrochloride]
7 | – | 99 | 81 | 2 | 0 | – | – | – | – | – | – | N[C@@H](Cc1c[nH]cn1)C(=O)OCC(=O)N(C[C@H]1CN(c2ccc(N3CCOCC3=O)cc2)C(=O)O1)C(=O)c1ccc(Cl)s1 [Example 8, 2-[[(5-Chloro-2-thienyl)carbonyl]({(5S)-2-oxo-3-[4-(3-oxomorpholin-4-yl)phenyl]-1,3-oxazolidin-5-yl}methyl)amino]-2-oxoethyl L-histidinate dihydrochloride]
8 | 680 | 100 | 99 | – | 0 | 8 | – | – | – | – | – | CC(C)[C@H](N)C(=O)SCC(=O)N(C[C@H]1CN(c2ccc(N3CCOCC3=O)cc2)C(=O)O1)C(=O)c1ccc(Cl)s1 [Example 10, S-{2-[[(5-Chloro-2-thienyl)carbonyl]({(5S)-2-oxo-3-[4-(3-oxomorpholin-4-yl)phenyl]-1,3-oxazolidin-5-yl}methyl)amino]-2-oxoethyl}(2S)-2-amino-3-methylbutanethioate hydrobromide]
9 | – | – | – | – | – | – | 960 | 10 | – | – | – | CC(C)[C@H](N)C(=O)SCC(=O)N(C[C@H]1CN(c2ccc(N3CCOCC3=O)cc2)C(=O)O1)C(=O)c1ccc(Cl)s1 [Example 11, S-{2-[[(5-Chloro-2-thienyl)carbonyl]({(5S)-2-oxo-3-[4-(3-oxomorpholin-4-yl)phenyl]-1,3-oxazolidin-5-yl}methyl)amino]-2-oxoethyl}(2S)-2-amino-3-methylbutanethioate hydrochloride]
10 | 350 | – | – | 0 | 0 | – | – | – | 100 | 98 | – | CNCCCC(=O)N(C[C@H]1CN(c2ccc(N3CCOCC3=O)cc2)C(=O)O1)C(=O)c1ccc(Cl)s1 [Example 12, 5-Chloro-N-[4-(methylamino)butanoyl]-N-({(5S)-2-oxo-3-[4-(3-oxomorpholin-4-yl)phenyl]-1,3-oxazolidin-5-yl}methyl)thiophene-2-carboxamide hydrobromide]
11 | – | – | – | 0 | 0 | – | – | – | 57 | 0 | – | CNCCCCC(=O)N(C[C@H]1CN(c2ccc(N3CCOCC3=O)cc2)C(=O)O1)C(=O)c1ccc(Cl)s1 [Example 14, 5-Chloro-N-[5-(methylamino)pentanoyl]-N-({(5S)-2-oxo-3-[4-(3-oxomorpholin-4-yl)phenyl]-1,3-oxazolidin-5-yl}methyl)thiophene-2-carboxamide hydrobromide]
12 | – | 100 | 99 | – | – | – | – | – | – | – | – | CNCCCCCC(=O)N(C[C@H]1CN(c2ccc(N3CCOCC3=O)cc2)C(=O)O1)C(=O)c1ccc(Cl)s1 [Example 18, 5-Chloro-N-[6-(methylamino)hexanoyl]-N-({(5S)-2-oxo-3-[4-(3-oxomorpholin-4-yl)phenyl]-1,3-oxazolidin-5-yl}methyl)thiophene-2-carboxamide hydrochloride]
13 | – | 100 | 97 | 0 | 0 | – | – | – | – | – | – | NCCCC(=O)N(C[C@H]1CN(c2ccc(N3CCOCC3=O)cc2)C(=O)O1)C(=O)c1ccc(Cl)s1 [Example 19, N-(4-Aminobutanoyl)-5-chloro-N-({(5S)-2-oxo-3-[4-(3-oxomorpholin-4-yl)phenyl]-1,3-oxazolidin-5-yl}methyl)thiophene-2-carboxamide hydrochloride]
14 | – | 100 | 100 | 92 | 66 | – | – | – | – | – | > 3000 | NCCCCCC(=O)N(C[C@H]1CN(c2ccc(N3CCOCC3=O)cc2)C(=O)O1)C(=O)c1ccc(Cl)s1 [Example 21, N-(6-Aminohexanoyl)-5-chloro-N-({(5S)-2-oxo-3-[4-(3-oxomorpholin-4-yl)phenyl]-1,3-oxazolidin-5-yl}methyl)thiophene-2-carboxamide hydrochloride]
15 | 8.1 (≈ 18.6 µM) | – | – | – | – | – | – | – | – | – | – | O=C(NC[C@H]1CN(c2ccc(N3CCOCC3=O)cc2)C(=O)O1)c1ccc(Cl)s1 [compound (A), 5-Chloro-N-({(5S)-2-oxo-3-[4-(3-oxomorpholin-4-yl)phenyl]-1,3-oxazolidin-5-yl}methyl)thiophene-2-carboxamide, reference compound]
